Measurements taken from article PMC4749168, “Potentiation of ΔF508- and G551D-CFTR-Mediated Cl^- Current by Novel Hydroxypyrazolines” (PLoS ONE, 2016).
Where “and” joins values, the source holds several entries; their conditions need not be identical. Equal values may be shown once. Entries after “also recorded” stand apart in the source; their conditions may differ.

Columns and labels:
ΔF508-CFTR [1] = target: T1, ΔF508-CFTR (Homo sapiens, UniProt P13569, DEL508-508); assay: Halide-sensitive YFP microplate reader assay of CFTR potentiation, ΔF508-CFTR; type: cell-based; design: expressed in transfected cells; host or cells: Fisher rat thyroid (FRT) cells, co-expressing halide sensor YFP-H148Q/I152L; provided by Dr. Alan Verkman; settings: FRT cells rescued at 27°C, 10 μM forskolin
Method: FRT cells expressing wild type- or ΔF508-CFTR with the halide sensor YFP-H148Q/I152L were plated in 96-well black-walled microplates (Corning Inc., Corning, NY) at a density of 2 x10^4cells per well. FRT-WT-CFTR-YFP cells were incubated for 48 h at 37°C, and FRT-ΔF508-CFTR-YFP cells were incubated for 24 h at 27°C after 24 h incubation at 37°C to rescue ΔF508-CFTR localization. Assays were done using FLUO star Omega microplate reader (BMG Labtech, Ortenberg, Germany) and MARS Data Analysis Software (BMG Labtech). Each well of a 96-well plate was washed 3 times in PBS (200 μL/wash). 100 μL PBS was added to each well. Forskolin (0.1 and 10 μM for WT- and ΔF508-CFTR, respectively) and test compounds (1 μL) were added to each well. After 10 min, 96-well plates were transferred to the microplate reader preheated to 37°C for fluorescence assay. Each well was assayed individually for CFTR-mediated I^- influx by recording fluorescence continuously (200 ms per point) for 2 s (baseline), then 100 μL of 140 mM I^- solution was added at 2 s and then YFP fluorescence was recorded for 14 s. Initial iodide influx rate was determined from the initial slope of fluorescence decrease, by nonlinear regression, following infusion of iodide.

intracellular cAMP = assay: Cyclic AMP assay in FRT cells; type: cell-based, rat; settings: 10 μM CP7q
Method: FRT cells grown on 12 well culture plates were washed 3 times with PBS at 37°C and then incubated in PBS at 37°C containing 100 μM IBMX for […] in the absence or presence of forskolin or CP7q. After 10 min incubation, the cells were washed with cold PBS and cytosolic cAMP was measured using a cAMP immunoassay kit (Parameter TM cAMP immunoassay kit, R&D Systems) according to the manufacturer's protocol.

ΔF508-CFTR [2] = target: T1, ΔF508-CFTR; assay: Apical membrane current (Ussing chamber) in FRT cells expressing low temperature-rescued ΔF508-CFTR; type: cell-based; design: expressed in transfected cells; host or cells: Fisher rat thyroid (FRT) cells, co-expressing halide sensor YFP-H148Q/I152L; provided by Dr. Alan Verkman; settings: 20 μM forskolin
Method: Snapwell inserts containing CFTR-expressing FRT and primary culture of human nasal epithelial cells were mounted in Ussing chambers (Physiologic Instruments, San Diego, CA). Forskolin, genistein, CP7q and CFTRinh-172 were added to the apical and basolateral bath solution. For FRT cells, the apical bath was filled with a half-Cl^- solution and the basolateral bath was filled with HCO3^—buffered solution, and the basolateral membrane was permeabilized with 250 μg/mL amphotericin B. For primary cultures of human nasal epithelial cells, symmetrical HCO3^—buffered solutions were used and ENaC was inhibited by pre-treatment with amiloride (100 μM). All cells were bathed for a 20 min stabilization period and aerated with 95% O2 / 5% CO2 at 37°C. Apical membrane current and short-circuit current were measured with an EVC4000 Multi-Channel V/I Clamp (World Precision Instruments, Sarasota, FL) and recorded using PowerLab 4/35 (AD Instruments, Castle Hill, Australia). Data were collected and analyzed with ADInstruments acquisition software Labchart Pro 7 software. The sampling rate was 4 Hz.

WT-CFTR = target: T2, WT-CFTR (Homo sapiens, UniProt P13569); assay: Whole-cell patch-clamp in FRT cells expressing WT-CFTR; type: cell-based
T2 construct: expressed in transfected cells; host or cells: Fisher rat thyroid (FRT) cells, co-expressing halide sensor YFP-H148Q/I152L; provided by Dr. Alan Verkman
Method: Whole-cell patch-clamp recordings were performed on WT- or ΔF508-CFTR-expressing FRT cells. The bath solution contained (in mM): 140 NMDG-Cl, 1 CaCl2, 1 MgCl2, 10 glucose and 10 HEPES (pH 7.4). The pipette solution contained (in mM): 130 CsCl, 0.5 EGTA, 1 MgCl2, 1 Tris-ATP, and 10 HEPES (pH 7.2). Pipettes were pulled from borosilicate glass and had resistances of 3–5 MΩ after fire polishing. Seal resistances were between 3 and 10 GΩ. After establishing the whole-cell configuration, CFTR was activated by forskolin and/or CP7q. Whole-cell currents were elicited by applying hyperpolarizing and depolarizing voltage pulses from a holding potential of 0 mV to potentials between -80 mV and +80 mV in steps of 20 mV. Recordings were made at room temperature using an Axopatch-200B (Axon Instruments). Currents were digitized and analyzed using a Digidata 1440A converter (Axon Instruments), and pCLAMP 10.2 software (Molecular Devices, Sunnyvale, CA). Currents were low-pass filtered at 1 kHz and sampled at 5 kHz

T1 sequence (P13569 with tags, fused parts or gaps DEL508-508): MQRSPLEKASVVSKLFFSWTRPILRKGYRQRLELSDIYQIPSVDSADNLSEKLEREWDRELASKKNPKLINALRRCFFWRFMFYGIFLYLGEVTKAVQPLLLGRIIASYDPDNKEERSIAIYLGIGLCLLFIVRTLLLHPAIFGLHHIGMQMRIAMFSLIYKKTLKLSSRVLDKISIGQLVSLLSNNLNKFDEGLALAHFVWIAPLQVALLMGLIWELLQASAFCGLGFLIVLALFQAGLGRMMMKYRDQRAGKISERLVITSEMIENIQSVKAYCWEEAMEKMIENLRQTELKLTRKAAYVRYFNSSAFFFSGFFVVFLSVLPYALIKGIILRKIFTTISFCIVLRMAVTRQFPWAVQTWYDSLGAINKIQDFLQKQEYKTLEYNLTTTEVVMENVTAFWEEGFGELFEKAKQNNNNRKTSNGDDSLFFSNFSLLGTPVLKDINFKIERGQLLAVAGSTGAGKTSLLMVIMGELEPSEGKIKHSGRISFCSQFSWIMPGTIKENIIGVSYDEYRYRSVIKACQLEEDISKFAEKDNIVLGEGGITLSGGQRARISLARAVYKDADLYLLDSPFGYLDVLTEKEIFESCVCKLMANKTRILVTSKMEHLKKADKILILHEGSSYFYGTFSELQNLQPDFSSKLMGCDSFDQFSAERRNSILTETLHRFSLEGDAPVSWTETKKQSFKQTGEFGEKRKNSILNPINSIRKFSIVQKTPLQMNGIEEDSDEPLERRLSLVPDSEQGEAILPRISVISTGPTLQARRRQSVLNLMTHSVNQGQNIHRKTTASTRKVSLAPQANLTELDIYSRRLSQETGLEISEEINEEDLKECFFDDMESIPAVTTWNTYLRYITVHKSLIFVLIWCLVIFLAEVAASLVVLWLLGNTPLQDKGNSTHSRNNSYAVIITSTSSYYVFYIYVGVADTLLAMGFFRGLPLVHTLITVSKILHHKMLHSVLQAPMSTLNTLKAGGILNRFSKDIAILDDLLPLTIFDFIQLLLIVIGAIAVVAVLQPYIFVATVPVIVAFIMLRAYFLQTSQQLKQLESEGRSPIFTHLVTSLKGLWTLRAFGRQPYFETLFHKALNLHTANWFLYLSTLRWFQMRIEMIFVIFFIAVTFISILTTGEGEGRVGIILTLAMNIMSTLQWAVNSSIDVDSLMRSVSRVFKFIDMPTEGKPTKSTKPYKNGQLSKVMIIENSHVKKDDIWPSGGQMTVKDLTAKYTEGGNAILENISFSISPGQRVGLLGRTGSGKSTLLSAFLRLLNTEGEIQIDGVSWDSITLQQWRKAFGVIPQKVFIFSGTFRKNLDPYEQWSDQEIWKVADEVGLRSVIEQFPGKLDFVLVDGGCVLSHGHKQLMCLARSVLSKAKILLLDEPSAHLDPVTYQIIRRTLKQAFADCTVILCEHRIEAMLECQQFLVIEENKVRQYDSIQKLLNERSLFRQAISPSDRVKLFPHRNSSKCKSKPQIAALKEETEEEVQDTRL

## COc1ccc(C2CC(c3ccc(O)cc3O)=NN2c2ccc(S(N)(=O)=O)cc2)c(OC)c1 (stereo not drawn) [Compound 7q, 4-[3-(2,4-dihydroxyphenyl)-5-(2,4-dimethoxyphenyl)-4,5-dihydro-1H-pyrazol-1-yl] benzenesulfonamide]
ΔF508-CFTR [1]
  EC50: 4.8 µM
Intracellular cAMP
  Effect on intracellular cAMP level: did not alter; also recorded: did not affect
ΔF508-CFTR [2]; genistein 50 μM
  Efficacy of ΔF508-CFTR potentiation compared with genistein: slightly higher than that of genistein
ΔF508-CFTR [2]; FRT cells, 27°C rescue 24 h
  EC50: 4.45 µM and ~4.45 µM
WT-CFTR; 0.1 μM forskolin, 10 μM CP7q
  Potentiation of whole-cell WT-CFTR Cl- current: strongly potentiated
WT-CFTR; whole cell patch-clamp, no forskolin
  Activation of WT-CFTR without forskolin stimulation: did not activate
